Measured values published in US12012415B2, “Compositions and methods for the diagnosis, treatment and prevention of neoplastic and neurological disorders” (AscentGene, Inc., priority 2018, dated 2024).

Assays:
[1] = biological target: PC4 protein (Homo sapiens, UniProt P53999); assay: PC4-DNA binding interference; conditions: high-throughput screen platform
Description: A number of small molecules were incubated with PC4 protein and DNA binding assessed.

[2] = tested on: dendritic spines of the CA1 pyramidal cells; assay: Golgi-Cox staining of dendritic spines, Aβ1-42 AD rat model; format: in vivo, rats; conditions: vs Aβ1-42 group
Description: Aβ1-42 (Sigma-Aldrich, St. Louis, MO, USA;) was dissolved in double-distilled water at the concentration of 5 μg/μl, and incubated at 37° C. for one week before surgery. The rats were randomly divided into four groups as Sham (n=8), Sham+AG-1601 (n=8), Aβ1-42 (n=8) and Aβ1-42+AG-1601 (n=8). The Alzheimer's disease rat models were established by intracerebroventricular (i.c.v.) injection of Aβ1-42 aggregates. The animals were anesthetized with intraperitoneal injection of pentobarbital sodium (50 mg/kg) and placed in a stereotaxic apparatus (Narishige, Japan). The head skin of the rat was opened and two small holes were drilled on both sides of skull following the coordinates: 0.8 mm posterior to bregma, +1.4 mm lateral to sagittal suture, 4.0 mm beneath the surface of brain. Aβ1-42 (2.0 μl per side) was injected bilaterally into the lateral ventricles through micro-syringe. The needle was taken out after 5 minutes of the injection to ensure the aggregates were infused completely. […]
Golgi-Cox staining method that performed according to the previously described protocol was used to determine the density of apical dendritic spines of the CA1 pyramidal cells in this study (Zhang et al., 2016). […] Six neurons in the CA1 region of hippocampus per animal were analyzed. The average dendritic spine density per 10 μm of dendritic length was calculated for each animal.

[3] = tested on: C6 glioma; assay: C6 intracranial glioma rat model; format: in vivo, rats
Description: SD male rate were intracranially injected with DMEM medium in 10 μl (sham and small plus AG-1601), and C6 cell at 1×10^6 in 10 μl (glioma and glioma plus AG-1601). C6 cells, a type of murine glioma cell lines, were injected into the right striatum in rats to induce glioma formation. C6 cells were cultured in DMEM containing 10% FBS. C6 cells were suspended in DMEM to implant in rats. Rats injected DMEM containing 10% FBS were grouped as Sham. Tumor formation continued for 7 days, followed by AG1601 was intravenous injected once a day for 6 days. Physical findings included: body weight/2d; effects on synaptic plasticity; electrophysiological tests of LTP and CA3-CA1; mechanism of the study (BDNF/TrkB signaling pathway); Western blot; Synaptic plasticity: BDNF/TrkB/PI3K/Akt/NMDA/PSD95/SYP; Tumor suppression: BDNF/TrkB/RAS/ERK/Bcl-2/Bax; Histology and immunohistochemical analysis; HE staining and immunohistochemistry staining; characterization of brain tumor (localization, size, and regions).

[4] = tested on: Aβ1-42-induced cognitive impairments; assay: Open field test in Aβ1-42 Alzheimer's disease rat model; format: in vivo, rats; conditions: for number of entries into the center zone: 1 mg/kg i.v. daily 14 days, vs Aβ1-42 group; for total distance / traveling speed: open field, between the four groups
Description: Aβ1-42 (Sigma-Aldrich, St. Louis, MO, USA;) was dissolved in double-distilled water at the concentration of 5 μg/μl, and incubated at 37° C. for one week before surgery. The rats were randomly divided into four groups as Sham (n=8), Sham+AG-1601 (n=8), Aβ1-42 (n=8) and Aβ1-42+AG-1601 (n=8). The Alzheimer's disease rat models were established by intracerebroventricular (i.c.v.) injection of Aβ1-42 aggregates. The animals were anesthetized with intraperitoneal injection of pentobarbital sodium (50 mg/kg) and placed in a stereotaxic apparatus (Narishige, Japan). The head skin of the rat was opened and two small holes were drilled on both sides of skull following the coordinates: 0.8 mm posterior to bregma, +1.4 mm lateral to sagittal suture, 4.0 mm beneath the surface of brain. Aβ1-42 (2.0 μl per side) was injected bilaterally into the lateral ventricles through micro-syringe. The needle was taken out after 5 minutes of the injection to ensure the aggregates were infused completely. Rats in the Sham group underwent the same operational process, but same volumes of double-distilled water were injected instead of Aβ1-42. After surgery, all rats were injected with penicillin (100,000 U) in the hindquarter muscle to prevent infection. The animals of Sham+AG-1601 and Aβ1-42+AG-1601 groups were intravenous injection with AG-1601 (1 mg/kg), while the same volume vehicle was implemented for the other groups every day for 14 days after one week of the postoperative recovery.
The open field test was carried out to evaluate locomotor activity and exploratory behavior. This test was conducted as described previously with little modifications (Sugita et al., 2015). The open field test consists of a circular apparatus (80 cm in diameter, 30 cm high). The circular apparatus was divided into the center zone (30 cm in diameter in the middle of the arena) and the concentric outer circle zone. Rats were placed individually in the outer circle of the apparatus and allowed to explore freely for 5 min. The path of each rat was tracked by a camera-driven tracker system (Ethovision2.0, Noldus, Wagenigen, Netherlands). The number of entries into the center zone, the total distance and the traveling speed during the testing were analyzed.

C=CC1=C(C)c2cc3[nH]c(cc4nc(cc5[nH]c(cc1n2)c(C)c5C=C)C(C)=C4CCC(=O)O)c(CCC(=O)NCCCc1ccccc1)c3C [AG-1601, 3-(2,8,13,18-tetramethyl-3-(3-oxo-3-((3-phenylpropyl)amino)propyl)-12,17-divinylporphyrin-7-yl)propanoic acid]
PC4 inhibition [1]: strong PC4 inhibitor | density of dendritic spines in the CA1 region [2]: marked reversal of the dendritic spine loss | body weights ([3]; Glioma vs Glioma+AG1601, 2 weeks): significant difference was found between them | tumor volumes ([3]; Glioma+AG1601 vs Glioma group): reduced | tumor weights ([3]; Glioma+AG1601 vs Glioma group): reduced | body weights ([3]; Sham vs Sham+AG1601, 2 weeks): without significant difference | survival time ([3]; glioma rats treated vs without treatment): longer | glioma growth ([3]; i.v. once a day for 6 days): could suppress glioma growth | efficacy on C6 xenograft tumor ([3]; rat model): shows efficacy | number of entries into the center zone [4]: increased dramatically | number of entries into the center zone ([4]; listed as AG-1061): increased significantly | total distance [4]: no significant effect | traveling speed [4]: no significant effect | total distance ([4]; listed as AG-1061): no significant difference | traveling speed ([4]; listed as AG-1061): no significant difference
